Several values for one entry are separate records, joined by “and”; a condition that tells them apart may be missing. Equal entries are not always repeated. Inconclusive results and toxic doses are left out. No stated cut-off is given here; in the data, active means T/C of 150% or more; inactive means T/C below 125%.
Tested on: L1210 leukemia ip in BDF1 mice, survival T/C
Assay: NCI In Vivo Anticancer Drug Screen. Data for tumor model L1210 Leukemia (intraperitoneal) in B6D2F1 (BDF1) mice
Conditions: higher = longer survival
Outline: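 Antitumor effect is assessed in tumor-bearing animals. Survival in the compound arm is compared with a vehicle-dosed control arm and expressed as their quotient.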

Measured: T/C

O=c1[nH]cc(F)c(=O)[nH]1
inactive: endpoint: mean survival time, dose: 0.06 mg/kg/injection, schedule: Q#A X Z (ip), vehicle: carboxymethylcellulose (CMC) 103 % of control | endpoint: mean survival time, dose: 0.12 mg/kg/injection, schedule: Q#A X Z (ip), vehicle: carboxymethylcellulose (CMC) 108 % of control | endpoint: mean survival time, dose: 0.25 mg/kg/injection, schedule: Q#A X Z (ip), vehicle: carboxymethylcellulose (CMC) 106 % of control | endpoint: mean survival time, dose: 0.5 mg/kg/injection, schedule: Q#A X Z (ip), vehicle: carboxymethylcellulose (CMC) 112 % of control | endpoint: mean survival time, dose: 0.63 mg/kg/injection, schedule: Q01DX015 (ip), vehicle: water 100 % of control | endpoint: mean survival time, dose: 0.75 mg/kg/injection, schedule: Q03DX006 (ip), vehicle: carboxymethylcellulose (CMC) 105 % of control | endpoint: mean survival time, dose: 1.0 mg/kg/injection, schedule: Q01DX009 (ip), vehicle: other 105 % of control | endpoint: mean survival time, dose: 1.4 mg/kg/injection, schedule: Q01DX Z (ip), vehicle: saline 109 % of control | endpoint: mean survival time, dose: 2.0 mg/kg/injection, schedule: Q01DX005 (iv), vehicle: carboxymethylcellulose (CMC) 108 % of control | endpoint: mean survival time, dose: 2.0 mg/kg/injection, schedule: Q01DX Z (im), vehicle: carboxymethylcellulose (CMC) 108 % of control | endpoint: mean survival time, dose: 2.0 mg/kg/injection, schedule: Q01DX Z (ip), vehicle: carboxymethylcellulose (CMC) 108 % of control | endpoint: mean survival time, dose: 2.5 mg/kg/injection, schedule: Q01DX015 (ip), vehicle: water 107 % of control | endpoint: mean survival time, dose: 4.0 mg/kg/injection, schedule: Q01DX005 (iv), vehicle: carboxymethylcellulose (CMC) 111 % of control | endpoint: mean survival time, dose: 4.8 mg/kg/injection, schedule: Q04DX002 (ip), vehicle: saline 93 % of control and 101 % of control | endpoint: mean survival time, dose: 5.0 mg/kg/injection, schedule: Q01DX006 (ip), vehicle: saline 110 % of control | endpoint: mean survival time, dose: 5.0 mg/kg/injection, schedule: Q01DX010 (ip), vehicle: saline 107 % of control | endpoint: mean survival time, dose: 8.0 mg/kg/injection, schedule: Q01DX005 (iv), vehicle: carboxymethylcellulose (CMC) 108 % of control | endpoint: mean survival time, dose: 8.4 mg/kg/injection, schedule: Q01DX009 (ip), vehicle: saline 102 % of control | endpoint: mean survival time, dose: 8.4 mg/kg/injection, schedule: Q01DX Z (ip), vehicle: saline 102 % of control | endpoint: mean survival time, dose: 9.5 mg/kg/injection, schedule: Q04DX002 (ip), vehicle: saline 101 % of control and 102 % of control | endpoint: mean survival time, dose: 10.0 mg/kg/injection, schedule: Q01DX009 (oral), vehicle: saline 111 % of control | endpoint: mean survival time, dose: 12.5 mg/kg/injection, schedule: Q04DX003 (ip), vehicle: saline 98 % of control | endpoint: mean survival time, dose: 13.3 mg/kg/injection, schedule: Q04DX003 (ip), vehicle: saline 110 % of control | endpoint: mean survival time, dose: 16.0 mg/kg/injection, schedule: Q#A X Z (ip), vehicle: carboxymethylcellulose (CMC) 108 % of control | endpoint: mean survival time, dose: 19.0 mg/kg/injection, schedule: Q04DX002 (ip), vehicle: saline 101 % of control | endpoint: mean survival time, dose: 27.5 mg/kg/injection, schedule: Q01DX012 (sc), vehicle: other 110 % of control | endpoint: mean survival time, dose: 30.0 mg/kg/injection, schedule: Q01DX009 (ip), vehicle: none 109 % of control | endpoint: mean survival time, dose: 30.0 mg/kg/injection, schedule: Q01DX009 (ip), vehicle: saline 101 % of control and 109 % of control | endpoint: mean survival time, dose: 30.0 mg/kg/injection, schedule: Q01DX Z (ip), vehicle: saline 97 % of control | endpoint: mean survival time, dose: 30.0 mg/kg/injection, schedule: Q## X Z (ip), vehicle: saline 98 % of control | endpoint: mean survival time, dose: 39.0 mg/kg/injection, schedule: Q01DX009 (ip), vehicle: saline 109 % of control | endpoint: mean survival time, dose: 39.0 mg/kg/injection, schedule: Q01DX Z (ip), vehicle: saline 96 % of control and 109 % of control | endpoint: mean survival time, dose: 40.0 mg/kg/injection, schedule: Q01DX010 (ip), vehicle: saline 100 % of control | endpoint: mean survival time, dose: 40.0 mg/kg/injection, schedule: Q01DX Z (ip), vehicle: methylcellulose (MC) 103 % of control | endpoint: mean survival time, dose: 45.0 mg/kg/injection, schedule: Q## X006 (ip), vehicle: saline 95 % of control | endpoint: mean survival time, dose: 50.0 mg/kg/injection, schedule: Q01DX Z (ip), vehicle: methylcellulose (MC) 94 % of control | endpoint: mean survival time, dose: 52.0 mg/kg/injection, schedule: Q01DX009 (ip), vehicle: saline 111 % of control | endpoint: mean survival time, dose: 64.0 mg/kg/injection, schedule: Q01DX Z (im), vehicle: carboxymethylcellulose (CMC) 96 % of control | endpoint: mean survival time, dose: 64.0 mg/kg/injection, schedule: Q01DX Z (oral), vehicle: carboxymethylcellulose (CMC) 94 % of control | endpoint: mean survival time, dose: 64.0 mg/kg/injection, schedule: Q01DX Z (sc), vehicle: carboxymethylcellulose (CMC) 105 % of control | endpoint: mean survival time, dose: 65.0 mg/kg/injection, schedule: Q01DX009 (ip), vehicle: saline 93 % of control | endpoint: mean survival time, dose: 67.0 mg/kg/injection, schedule: Q02DX010 (ip), vehicle: other 102 % of control | endpoint: mean survival time, dose: 67.1 mg/kg/injection, schedule: Q01DX005 (sc), vehicle: other 100 % of control | endpoint: mean survival time, dose: 68.0 mg/kg/injection, schedule: Q02DX010 (ip), vehicle: carboxymethylcellulose (CMC) 108 % of control | endpoint: mean survival time, dose: 68.0 mg/kg/injection, schedule: Q02DX010 (ip), vehicle: other 98 % of control | endpoint: mean survival time, dose: 80.0 mg/kg/injection, schedule: Q01DX005 (ip), vehicle: Klucel (hydroxypropylcellulose) (HPC) 97 % of control | endpoint: mean survival time, dose: 80.0 mg/kg/injection, schedule: Q01DX005 (ip), vehicle: acetone 100 % of control | endpoint: mean survival time, dose: 80.0 mg/kg/injection, schedule: Q01DX005 (ip), vehicle: other 100 % of control | endpoint: mean survival time, dose: 80.0 mg/kg/injection, schedule: Q01DX006 (ip), vehicle: saline 103 % of control | endpoint: mean survival time, dose: 80.0 mg/kg/injection, schedule: Q01DX009 (ip), vehicle: none 93 % of control | endpoint: mean survival time, dose: 80.0 mg/kg/injection, schedule: Q01DX009 (ip), vehicle: water 95 % of control | endpoint: mean survival time, dose: 80.0 mg/kg/injection, schedule: Q01DX009 (oral), vehicle: saline 103 % of control | endpoint: mean survival time, dose: 80.0 mg/kg/injection, schedule: Q01DX015 (ip), vehicle: saline 110 % of control | endpoint: mean survival time, dose: 80.0 mg/kg/injection, schedule: Q02DX005 (ip), vehicle: water 108 % of control | endpoint: mean survival time, dose: 90.0 mg/kg/injection, schedule: Q04DX004 (ip), vehicle: saline 98 % of control | endpoint: mean survival time, dose: 94.5 mg/kg/injection, schedule: Q02DX010 (ip), vehicle: carboxymethylcellulose (CMC) 109 % of control | endpoint: mean survival time, dose: 101.0 mg/kg/injection, schedule: Q02DX010 (ip), vehicle: carboxymethylcellulose (CMC) 95 % of control | endpoint: mean survival time, dose: 120.0 mg/kg/injection, schedule: Q01DX006 (ip), vehicle: saline 98 % of control | endpoint: mean survival time, dose: 120.0 mg/kg/injection, schedule: Q04DX003 (ip), vehicle: saline with Tween-80 93 % of control and 96 % of control and 102 % of control | endpoint: mean survival time, dose: 120.0 mg/kg/injection, schedule: Q## X004 (ip), vehicle: water 105 % of control | endpoint: mean survival time, dose: 128.0 mg/kg/injection, schedule: Q01DX005 (iv), vehicle: carboxymethylcellulose (CMC) 109 % of control | endpoint: mean survival time, dose: 164.0 mg/kg/injection, schedule: Q01DX002 (sc), vehicle: other 95 % of control | endpoint: mean survival time, dose: 177.6 mg/kg/injection, schedule: Q01DX001 (ip), vehicle: carboxymethylcellulose (CMC) 111 % of control | endpoint: mean survival time, dose: 180.0 mg/kg/injection, schedule: Q## X004 (ip), vehicle: water 107 % of control | endpoint: mean survival time, dose: 200.0 mg/kg/injection, schedule: Q02DX005 (ip), vehicle: saline 96 % of control | endpoint: mean survival time, dose: 200.0 mg/kg/injection, schedule: Q04DX002 (ip), vehicle: saline 110 % of control | endpoint: mean survival time, dose: 256.0 mg/kg/injection, schedule: Q01DX001 (sc), vehicle: other 101 % of control | endpoint: mean survival time, dose: 256.0 mg/kg/injection, schedule: Q01DX005 (iv), vehicle: carboxymethylcellulose (CMC) 103 % of control | endpoint: mean survival time, dose: 300.0 mg/kg/injection, schedule: Q01DX001 (ip), vehicle: Klucel (hydroxypropylcellulose) (HPC) 104 % of control | endpoint: mean survival time, dose: 320.0 mg/kg/injection, schedule: Q01DX009 (ip), vehicle: saline 94 % of control | endpoint: mean survival time, dose: 400.0 mg/kg/injection, schedule: Q04DX003 (ip), vehicle: saline 97 % of control | endpoint: mean survival time, dose: 400.0 mg/kg/injection, schedule: Q## X004 (ip), vehicle: alkali diluted with saline 109 % of control | endpoint: mean survival time, dose: 600.0 mg/kg/injection, schedule: Q01DX001 (ip), vehicle: carboxymethylcellulose (CMC) 106 % of control | endpoint: mean survival time, dose: 900.0 mg/kg/injection, schedule: Q01DX001 (ip), vehicle: water 101 % of control | endpoint: mean survival time, dose: 900.0 mg/kg/injection, schedule: Q## X004 (ip), vehicle: alkali diluted with saline 104 % of control | endpoint: median survival time, dose: 4.0 mg/kg/injection, schedule: Q01DX009 (ip), vehicle: saline 98 % of control and 100 % of control | endpoint: median survival time, dose: 8.0 mg/kg/injection, schedule: Q01DX009 (ip), vehicle: saline 98 % of control and 100 % of control | endpoint: median survival time, dose: 16.0 mg/kg/injection, schedule: Q01DX009 (ip), vehicle: saline 100 % of control and 102 % of control | endpoint: median survival time, dose: 23.0 mg/kg/injection, schedule: Q04DX003 (oral), vehicle: saline 106 % of control | endpoint: median survival time, dose: 65.0 mg/kg/injection, schedule: Q01DX005 (ip), vehicle: saline 98 % of control | endpoint: median survival time, dose: 65.0 mg/kg/injection, schedule: Q01DX009 (ip), vehicle: saline 106 % of control | endpoint: median survival time, dose: 75.0 mg/kg/injection, schedule: Q01DX001 (ip), vehicle: saline 109 % of control | endpoint: median survival time, dose: 300.0 mg/kg/injection, schedule: Q01DX001 (ip), vehicle: alkali diluted with saline 97 % of control | endpoint: median survival time, dose: 300.0 mg/kg/injection, schedule: Q04DX003 (oral), vehicle: saline 102 % of control | endpoint: median survival time, dose: 300.0 mg/kg/injection, schedule: Q04DX003 (sc), vehicle: saline 105 % of control | endpoint: median survival time, dose: 500.0 mg/kg/injection, schedule: Q04DX003 (oral), vehicle: saline 108 % of control | endpoint: median survival time, dose: 600.0 mg/kg/injection, schedule: Q01DX001 (ip), vehicle: alkali diluted with saline 101 % of control

— PubChem BioAssay AID248 (DTP/NCI, 2004)
